pIC50: −log10 of the molar value. Calls of active or inactive are those of the source. No cut-off for these calls is given here.
How the values were obtained:
[1] = Antiproliferative activity against human LO2 cells assessed as inhibition of cell growth measured after 72 hrs by MTT assay; assay type: toxicity, cell-based, L02
MCF7 = test: Antiproliferative activity against human MCF7 cells assessed as inhibition of cell growth measured after 72 hrs by MTT assay; assay type: functional, cell-based; settings: MCF7, 72 h
Mitochondrial membrane [2] = test: Induction of mitochondrial membrane depolarization in human HCC827 cells assessed as increase in J-monomer ratio at 0.125 to 0.5 uM incubated for 4 hrs by JC-1 staining based flow cytometric analysis; assay type: cell membranes; settings: dose 0.125-0.5 µM
Mitochondrial membrane [3] = test: Induction of mitochondrial membrane depolarization in human HCC827 cells assessed as increase green fluorescence intensity at 0.125 to 0.5 uM incubated for 4 hrs by rhodamine 123 staining based confocal microscopy analysis; assay type: cell membranes; settings: dose 0.125-0.5 µM
Mitochondrial membrane [4] = test: Induction of mitochondrial membrane depolarization in human NCI-H1650 cells assessed as increase in JC-1 monomer ratio at 0.25 to 0.5 uM incubated for 4 hrs by JC-1 staining based confocal microscopy analysis; assay type: cell membranes; settings: dose 0.25-0.5 µM
Mitochondrial membrane [5] = test: Induction of mitochondrial membrane depolarization in human BEAS-2B cells assessed as increase in JC-1 monomer ratio at 0.25 to 0.5 uM incubated for 4 hrs by JC-1 staining based confocal microscopy analysis; assay type: cell membranes; settings: dose 0.25-0.5 µM
HCC827 [6] = test: Induction of mitochondrial dysfunction in human HCC827 cells assessed as reduction in glycolytic capacity at 0.125 to 5 uM incubated for 4 hrs by Seahorse XF96 extracellular flux analyzer; assay type: functional, cell-based; settings: dose 0.125-5 µM
HCC827 [7] = test: Induction of mitochondrial dysfunction in human HCC827 cells assessed as suppression of basal respiration incubated for 4 hrs by Seahorse XF96 extracellular flux analyzer; assay type: functional, cell-based; settings: dose 0.125-5 µM
HCC827 [8] = test: Downregulation of HK-2 expression level in human HCC827 cells 0.5 uM incubated for 3 to 24 hrs in presence of BFA by Western blot analysis; assay type: functional, cell-based; settings: time 3-24 hrs
HCC827 [9] = test: Downregulation of VDAC1 expression level in human HCC827 cells 0.25 to 0.5 uM incubated for 24 hrs in presence of BFA by Western blot analysis; assay type: functional, cell-based; settings: dose 0.25-0.5 µM
HCC827 [10] = test: Induction of mitophagy in human HCC827 cells assessed as increase in LC3-II/LC-3-I ratio at 0.5 uM measured after 24 hrs in presence of Baf A1 by Western blot analysis; assay type: functional, cell-based
HEK-293T [11] = test: Downregulation of TIMM23 expression level in human HEK293T cells; assay type: functional, cell-based; settings: dose 0.25-0.5 µM
HEK-293T [12] = test: Downregulation of […] expression level in human HEK293T cells; assay type: functional, cell-based; settings: dose 0.25-0.5 µM
HCC827 [13] = test: Induction of cell cycle arrest in human HCC827 cells assessed as increase in p53 expression level at 0.25 to 5 uM measured after 24 hrs by Western blot analysis; assay type: functional, cell-based; settings: dose 0.25-5 µM
HCC827 [14] = test: Induction of cell cycle arrest in human HCC827 cells assessed as accumulation of cells at G2 phase at 0.2 uM incubated for 24 hrs by PI staining based flow cytometry analysis (reference value: 7.15%); assay type: functional
HCC827 [15] = test: Induction of cell cycle arrest in human HCC827 cells assessed as accumulation of cells at G2 phase at 0.4 uM incubated for 24 hrs by PI staining based flow cytometry analysis (reference value: 7.15%); assay type: functional
HCC827 [16] = test: Induction of ROS generation in human HCC827 cells assessed as decrease in NADH content at 1 uM incubated for 4 hrs by absorbance based analysis; assay type: functional, cell-based
HCC827 [17] = test: Induction of ROS generation in human HCC827 cells assessed as increase in superoxide anion level by measuring increase in red fluorescence intensity at 1 uM incubated for 4 hrs by laser scanning confocal fluorescence microscopic analysis; assay type: functional, cell-based
HCC827 [18] = test: Induction of ferroptosis in human HCC827 cells assessed as increase in lipid peroxidation level incubated for 24 hrs by absorbance based analysis; assay type: functional, cell-based; settings: dose 0.25-0.5 µM
HCC827 [19] = test: Induction of ferroptosis in human HCC827 cells assessed as increase in MDA content incubated for 24 hrs by absorbance based analysis; assay type: functional, cell-based; settings: dose 0.25-0.5 µM
HCC827 [20] = test: Induction of apoptosis in human HCC827 cells assessed as early apoptotic cells at 0.25 uM measured after 48 hrs by annexin V and PI staining based flow cytometry analysis (reference value: 0.70%); assay type: functional
HCC827 [21] = test: Induction of apoptosis in human HCC827 cells assessed as early apoptotic cells at 1 uM measured after 36 hrs by annexin V and PI staining based flow cytometry analysis (reference value: 1.80%); assay type: functional
HCC827 [22] = test: Induction of apoptosis in human HCC827 cells assessed as early apoptotic cells at 1 uM measured after 48 hrs by annexin V and PI staining based flow cytometry analysis (reference value: 1.80%); assay type: functional
HCC827 [23] = test: Induction of apoptosis in human HCC827 cells assessed as late apoptotic cells at 1 uM measured after 36 hrs by annexin V and PI staining based flow cytometry analysis (reference value: 2.18%); assay type: functional
HCC827 [24] = test: Induction of apoptosis in human HCC827 cells assessed as necrotic cells at 1 uM measured after 48 hrs by annexin V and PI staining based flow cytometry analysis (Rvb =0.84%); assay type: functional
HCC827 [25] = test: Antiproliferative activity against human HCC827 cells assessed as cell viability preincubated with Nec followed by compound addition and measured after 48 hrs by MTT assay; assay type: functional, cell-based
HCC827 [26] = test: Antiproliferative activity against human HCC827 cells assessed as cell viability at 1 uM measured after 48 hrs in presence of ferrostatin-1 by MTT assay relative to control; assay type: functional; settings: read-out: Activity
HCC827 [27] = test: Antiproliferative activity against human HCC827 cells assessed as increase in cell viability at 1 uM measured after 48 hrs in presence of BFA by MTT assay; assay type: functional, cell-based
HCC827 [28] = test: Effect on NDUFB8 expression in human HCC827 cells at 0.25 to 0.5 uM; assay type: functional, cell-based; settings: dose 0.25-0.5 µM
HCC827 [29] = test: Effect on UQCRC2 expression in human HCC827 cells at 0.25 to 0.5 uM; assay type: functional, cell-based; settings: dose 0.25-0.5 µM
HCC827 [30] = test: Effect on COX1 expression in human HCC827 cells at 0.25 to 0.5 uM incubated for 24 hrs by Western blot analysis; assay type: functional, cell-based; settings: dose 0.25-0.5 µM
BEAS-2B = test: Inhibition of colony formation in human BEAS-2B cells at 0.05 to 0.1 uM incubated for 72 hrs by crystal violet staining based analysis; assay type: functional, cell-based; settings: dose 0.05-0.1 µM
[31] = Toxicity in female BALB/c mouse assessed as histopathological changes in spleen at 30 mg/kg, ip measured for 7 days by H and E staining based analysis; assay type: organism-based; settings: in vivo, 168 h, time 7 day
[32] = Toxicity in female BALB/c mouse assessed as histopathological changes in kidney at 30 mg/kg, ip measured for 7 days by H and E staining based analysis; assay type: organism-based; settings: in vivo, 168 h, time 7 day
[33] = Toxicity in female Kunming mouse assessed as change in body weight at 50 mg/kg, ip measured every two days for 7 days; assay type: organism-based; settings: in vivo, 168 h, time 7 day
[34] = Toxicity in female nude mouse assessed as effect om weight loss at 5 to 10 mg/kg, ip measured after 14 days; assay type: organism-based; settings: in vivo, 336 h, dose 5-10 mg/kg, time 14 day
HCC827 [35] = test: Antitumor activity against human HCC827 cells xenografted in female nude mouse model assessed as reduction in tumor weight at 5 to 10 mg/kg, ip measured every two days for 14 days; assay type: functional, organism-based; settings: dose 5-10 mg/kg, time 14.0 day

Cc1ccc([P+](CCCCCCCCCCO)(c2ccc(C)cc2)c2ccc(C)cc2)cc1.[Br-]
IC50 at 72 h [1]: 1310 nM | pIC50 (MCF7): 6.80 | Activity (Mitochondrial membrane [2]): Active | Activity (Mitochondrial membrane [3]): inactive | Activity (Mitochondrial membrane [4]): Active | Activity (Mitochondrial membrane [5]): inactive | Activity (HCC827 [6]): Active | Activity (HCC827 [7]): Dose-dependent-effect | Activity (HCC827 [8]): inactive | Activity (HCC827 [9]): inactive | Activity (HCC827 [10]): inactive | Activity (HEK-293T [11]): Dose-dependent-effect | Activity (HEK-293T [12]): Dose-dependent-effect | Activity (HCC827 [13]): Active | Activity (HCC827 [14]): 3.91% | Activity (HCC827 [15]): 4.95% | Activity (HCC827 [16]): Active | Activity (HCC827 [17]): Active | Activity (HCC827 [18]): Dose-dependent-effect | Activity (HCC827 [19]): Dose-dependent-effect | Activity (HCC827 [20]): 1.16% | Activity (HCC827 [21]): 0.18% | Activity (HCC827 [22]): 5.33% | Activity (HCC827 [23]): 0.32% | Activity (HCC827 [24]): 2.02% | pIC50 (HCC827 [25]): 6.89 | viability at 1 µM (HCC827 [26]): 51.4% | Activity (HCC827 [27]): Active | Activity (HCC827 [28]): Active | Activity (HCC827 [29]): Active | Activity (HCC827 [30]): Active | inhibition (BEAS-2B): Minimal_effect | Activity [31]: Non-toxic | Activity [32]: Non-toxic | Activity [33]: Toxic | Activity [34]: Non-toxic | Activity (HCC827 [35]): Active

— ChEMBL document CHEMBL6182916, “Unexpected Discovery of a Novel Triphenylphosphonium Alkylalcohol That Triggers Cancer Cell Death via Mitophagy and Ferroptosis” (J Med Chem, 2025)
